From PubChem BioAssay (NCI)
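Interpolation was linear, between the two tested concentrations surrounding the appropriate level; five concentrations were tested over 48 hours in 96-well plates. TGI marks complete inhibition of growth.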 Where a SMILES comes first, the peptide text is derived from it. The star is where a group is joined. Boc = CC(C)(C)OC(=O)*

Key:
Experiment in all cases: NCI-60 cell line screen, 48 h
[1] = tested on: BT-549 breast
[2] = tested on: RXF 393 renal
[3] = tested on: DU-145 prostate
[4] = tested on: SNB-75 CNS
[5] = tested on: M14 melanoma
[6] = tested on: MDA-MB-231 breast

CN(C(=O)C12C3C4C1C1C2C3C41C(=O)O)C(C)(C)C (stereo not given)
TGI [1]: > 100 µM
TGI [2]: > 100 µM
TGI [3]: > 100 µM
TGI [4]: > 100 µM
TGI [5]: > 100 µM
TGI [6]: > 100 µM

CCCCCCCCCCCCOCCCCCCCCC/C=C/c1ccc2c(c1)OCCOCCOCCOCCO2
TGI [1]: 40.6 µM
TGI [2]: 36.4 µM
TGI [3]: > 100 µM
TGI [4]: 33.4 µM
TGI [5]: 88.9 µM
TGI [6]: 37.7 µM

COC(=O)C(Cc1c[nH]c2ccccc12)NC(=O)C(Cc1c[nH]c2ccccc12)NC(=O)C(Cc1c[nH]c2ccccc12)NC(=O)C(Cc1c[nH]c2ccccc12)NC(=O)C(Cc1c[nH]c2ccccc12)NC(=O)OC(C)(C)C (stereo not given) (Boc-WWWWW-OMe; configuration not given here)
TGI [1]: > 100 µM
TGI [3]: > 100 µM
TGI [4]: > 100 µM
TGI [5]: > 100 µM
TGI [6]: > 100 µM

CC(C)(C)c1cc(C(C)(C)C)c(P=C(Cl)Cl)c(C(C)(C)C)c1 (stereo not given)
TGI [1]: > 100 µM
TGI [3]: > 100 µM
TGI [4]: > 100 µM
TGI [5]: > 100 µM
TGI [6]: > 100 µM

Cc1cccc(/C=N/NC(=S)NC2CCCCC2)n1
TGI [1]: > 100 µM
TGI [2]: 76.1 µM
TGI [3]: > 100 µM
TGI [4]: > 100 µM
TGI [5]: 61.6 µM
TGI [6]: > 100 µM

CC(C)C(=O)CC(Sc1ccc(N)cc1)c1ccccc1 (stereo not given)
TGI [1]: 65.6 µM
TGI [2]: 89.1 µM
TGI [3]: > 100 µM
TGI [4]: > 100 µM
TGI [5]: > 100 µM
TGI [6]: 60.5 µM

Cc1ccc(-n2nnc3c(NNc4ccccc4)n[nH]c(=O)c32)cc1
TGI [1]: > 100 µM
TGI [3]: > 100 µM
TGI [4]: > 100 µM
TGI [5]: > 100 µM
TGI [6]: > 100 µM

C=C[C@@]1(C)CC(=O)[C@]2(O)[C@@]3(C)[C@@H](OC(C)=O)CCC(C)(C)[C@@H]3[C@H](O)[C@H](OC(C)=O)[C@@]2(C)O1
TGI [1]: > 100 µM
TGI [3]: > 100 µM
TGI [4]: 87.7 µM
TGI [5]: > 100 µM
TGI [6]: > 100 µM

COc1ccc(C[C@H]2NC[C@H](OC(C)=O)[C@H]2OC(C)=O)cc1
TGI [1]: 0.564 µM
TGI [2]: 0.651 µM
TGI [3]: 0.903 µM
TGI [4]: 0.362 µM
TGI [5]: 0.328 µM
TGI [6]: 1.49 µM

O=C1c2scc(-c3ccc(F)cc3)c2-n2cccc21
TGI [1]: 79.7 µM
TGI [2]: > 100 µM
TGI [3]: > 100 µM
TGI [4]: 45.2 µM
TGI [5]: > 100 µM
TGI [6]: > 100 µM

O=[N+]([O-])/C(C(Cl)=C(Cl)Cl)=C(\Nc1cccc2cccnc12)Sc1ccccc1
TGI [1]: 48 µM
TGI [3]: 78.4 µM
TGI [4]: 72.2 µM
TGI [5]: > 100 µM
TGI [6]: > 100 µM

C[C@@H]1C(=O)O[C@@H]2C[C@@]1(C)[C@@H]1C(=O)C3(O)OC14C2(C)OC(=O)[C@@]4(O)CCC1C3C(O)C=C2CC=CC(=O)[C@@]21C (stereo not given in full)
TGI [2]: 32.8 µM
TGI [3]: > 100 µM
TGI [4]: 54.2 µM
TGI [5]: 90.8 µM
TGI [6]: > 100 µM

CNc1nc2c(C)ccc3nc(N(C)C)nc-3c2n1C
TGI [1]: > 10 µM
TGI [2]: > 10 µM
TGI [3]: > 10 µM
TGI [4]: > 10 µM
TGI [5]: > 10 µM
TGI [6]: > 10 µM

NS(=O)(=O)c1ccc(NC(=S)/N=C/c2c(O)c3ccccc3[nH]c2=O)cc1
TGI [1]: > 100 µM
TGI [2]: > 100 µM
TGI [3]: > 100 µM
TGI [4]: > 100 µM
TGI [5]: > 100 µM
TGI [6]: > 100 µM

CCOC(=O)C(C)c1nc2cc(F)c(N3CCOCC3)cc2[nH]c1=O (stereo not given)
TGI [1]: > 100 µM
TGI [2]: > 100 µM
TGI [3]: > 100 µM
TGI [4]: > 100 µM
TGI [5]: > 100 µM
TGI [6]: > 100 µM

CC1CC/C(=C\c2ccc(Cl)cc2)C(=O)/C1=C\c1ccc(Cl)cc1 (stereo not given)
TGI [1]: 50.3 µM
TGI [2]: 71.7 µM
TGI [3]: > 100 µM
TGI [4]: > 100 µM
TGI [5]: 48.8 µM
TGI [6]: > 100 µM

N/C(=N\Nc1cccc(Cl)c1)c1cccnc1
TGI [1]: > 100 µM
TGI [2]: > 80.3 µM
TGI [3]: > 100 µM
TGI [4]: 99.7 µM
TGI [5]: 59.2 µM
TGI [6]: > 100 µM

CC(C)/C(Cl)=N/OC(NC(=O)Nc1ccc(Cl)c(Cl)c1)(C(F)(F)F)C(F)(F)F
TGI [1]: 25.7 µM
TGI [2]: 9.23 µM
TGI [3]: 31.9 µM
TGI [4]: 31.3 µM
TGI [5]: 18.3 µM
TGI [6]: 34.2 µM

COC(=O)C1=C(O)C(C(=O)OC)[C@]2(O)[C@H](C(=O)OC)[C@H]1C[C@@H](c1ccc(O)cc1)[C@H]2C(=O)OC (stereo not given in full)
TGI [1]: 91.5 µM
TGI [2]: 45.1 µM
TGI [3]: 71.6 µM
TGI [4]: 81.5 µM
TGI [5]: > 100 µM
TGI [6]: 60.7 µM

Nc1nc([O-])c([I+]c2ccccc2)c(=O)[nH]1
TGI [1]: > 100 µM
TGI [2]: > 100 µM
TGI [3]: > 100 µM
TGI [4]: > 100 µM
TGI [6]: > 100 µM

Cc1ccc(/C(O)=C/c2nc3ccccc3nc2NC23CC4CC(CC(C4)C2)C3)cc1
TGI [1]: > 10 µM
TGI [3]: > 10 µM
TGI [4]: > 10 µM
TGI [5]: > 10 µM
TGI [6]: > 10 µM

CN(C)Cc1cc(N=Nc2c(Cl)cccc2Cl)ccc1O
TGI [1]: > 100 µM
TGI [2]: > 100 µM
TGI [3]: > 100 µM
TGI [4]: > 100 µM
TGI [6]: > 100 µM

N#Cc1cccc(Nc2ccccc2SSc2ccccc2Nc2cccc(C#N)c2)c1
TGI [3]: > 21.5 µM
TGI [4]: > 21.5 µM
TGI [5]: 18.6 µM
TGI [6]: > 21.5 µM

CCOC(=O)N(C)CCC1CC=CC(=O)C1c1cccc(OC)c1OC (stereo not given)
TGI [1]: 34.3 µM
TGI [2]: 27.5 µM
TGI [3]: 44.4 µM
TGI [5]: 55 µM
TGI [6]: > 100 µM

CCOC(=O)Nn1cnnc1Cc1ccccc1
TGI [1]: > 100 µM
TGI [5]: > 100 µM
TGI [6]: > 100 µM

CCCCC1=C(C(=O)N2CCOCC2)C2(OCCO2)C1Cl (stereo not given)
TGI [2]: 81.6 µM
TGI [3]: > 100 µM
TGI [4]: > 100 µM
TGI [5]: 33.9 µM
TGI [6]: > 100 µM

c1ccc2c(c1)Sc1ccccc1N2CCCN1c2ccccc2Sc2ccccc21
TGI [1]: > 100 µM
TGI [2]: > 100 µM
TGI [3]: > 100 µM
TGI [5]: > 100 µM
TGI [6]: > 100 µM

Cc1cc(Cl)ccc1NC(=O)/C(Cc1nc2ccc(C(=O)c3ccccc3)cc2[nH]c1=O)=N/NC(=O)c1ccncc1
TGI [1]: > 100 µM
TGI [2]: > 100 µM
TGI [4]: > 100 µM
TGI [5]: > 100 µM
TGI [6]: > 100 µM

N#CCN(Cc1ccccc1)[C@H]1CCC[C@]1(O)/C=C/c1ccc2c(c1)OCO2
TGI [2]: 77.3 µM
TGI [3]: > 100 µM
TGI [4]: > 100 µM
TGI [5]: 30.2 µM
TGI [6]: 71.5 µM

Cc1nc(C)c(N2CCN(C(=O)NC(CCC(=O)O)C(=O)O)CC2)c(=O)[nH]1 (stereo not given)
TGI [1]: > 100 µM
TGI [2]: > 100 µM
TGI [3]: > 100 µM
TGI [5]: > 100 µM
TGI [6]: > 100 µM

COC(=O)CC(SCCO)SCCO
TGI [2]: > 100 µM
TGI [3]: > 100 µM
TGI [4]: > 100 µM
TGI [5]: > 100 µM
TGI [6]: > 100 µM

COc1ccc(OC)c2sc(N3C(=O)/C(=C/c4ccc(N(C)C)cc4)N=C3c3ccccc3)nc12
TGI [1]: > 100 µM
TGI [3]: > 100 µM
TGI [4]: > 100 µM
TGI [5]: > 100 µM
TGI [6]: > 100 µM
